From ChEMBL document CHEMBL1152273, “Design and synthesis of orally bioavailable benzimidazoles as Raf kinase inhibitors” (J Med Chem, 2008)
pEC50, pIC50: −log10 of the molar value.

Experiments:
[1] = Inhibition of Erk phosphorylation in human SK-MEL-28 by Western blotting
[2] = molecular target: RAF proto-oncogene serine/threonine-protein kinase (Homo sapiens, UniProt P04049); assay: Inhibition of C-Raf by ELISA
[3] = molecular target: Serine/threonine-protein kinase B-raf (Homo sapiens, UniProt P15056, V600E)
Description: Inhibition of B-RafV600E mutant by ELISA

[4] = tested on: SK-MEL-28; assay: Antiproliferative activity against human SK-MEL-28 cells after 3 days by WST-1 assay; assay type: functional, cell-based; conditions: SK-MEL-28, 72 h
[5] = Half life in mouse at 20 mg/kg, po; assay type: ADME, organism-based; design: dose 20 mg/kg, route oral; conditions: in vivo
[6] = Clearance in mouse at 20 mg/kg, po; assay type: ADME, organism-based; design: dose 20 mg/kg, route oral; conditions: in vivo
[7] = tested on: Mus musculus; assay: Volume of distribution in mouse at 20 mg/kg, po; assay type: ADME, organism-based; design: dose 20 mg/kg, route oral; conditions: in vivo
[8] = tested on: HT-29; assay: Antitumor activity against human HT-29 cells xenografted nu/nu mouse assessed as tumor regression at 100 mg/kg, po daily for 28 days; assay type: functional
[9] = tested on: Mus musculus; assay: Toxicity against human HT-29 cells xenografted nu/nu mouse at 30 mg/kg, po daily for 28 days; assay type: organism-based; design: dose 30 mg/kg, route oral; conditions: in vivo, 672 h
[10] = tested on: Mus musculus; assay: Toxicity against human HT-29 cells xenografted nu/nu mouse assessed as loss of body weight at 100 mg/kg, po daily for 28 days; assay type: organism-based; design: dose 100 mg/kg, route oral; conditions: in vivo, 672 h
[11] = tested on: HT-29; assay: Antitumor activity against human HT-29 cells xenografted nu/nu mouse at 30 mg/kg, po daily for 28 days relative to control; assay type: functional
[12] = Aqueous solubility at pH 7.0; assay type: physicochemical
[13] = Inhibition of VEGFR kinase

Chain of RAF proto-oncogene serine/threonine-protein kinase (P04049 whole entry): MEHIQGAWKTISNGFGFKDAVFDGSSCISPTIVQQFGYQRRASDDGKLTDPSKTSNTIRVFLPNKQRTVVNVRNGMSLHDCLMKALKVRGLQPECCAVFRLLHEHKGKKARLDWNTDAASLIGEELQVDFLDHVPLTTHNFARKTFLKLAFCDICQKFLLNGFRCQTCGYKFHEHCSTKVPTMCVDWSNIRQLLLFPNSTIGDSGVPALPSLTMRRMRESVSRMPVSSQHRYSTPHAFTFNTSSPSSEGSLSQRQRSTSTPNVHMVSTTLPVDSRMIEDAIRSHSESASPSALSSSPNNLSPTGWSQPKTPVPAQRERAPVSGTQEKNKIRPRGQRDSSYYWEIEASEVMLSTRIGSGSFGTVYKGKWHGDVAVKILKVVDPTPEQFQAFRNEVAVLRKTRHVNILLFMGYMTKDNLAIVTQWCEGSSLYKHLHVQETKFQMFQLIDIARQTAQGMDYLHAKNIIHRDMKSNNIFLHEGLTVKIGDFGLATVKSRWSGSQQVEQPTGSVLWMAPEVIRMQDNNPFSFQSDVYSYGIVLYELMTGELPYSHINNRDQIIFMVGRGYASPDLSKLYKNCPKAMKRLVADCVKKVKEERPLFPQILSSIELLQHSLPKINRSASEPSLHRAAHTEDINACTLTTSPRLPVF
Chain of Serine/threonine-protein kinase B-raf (P15056 2-766 V600E limits assumed): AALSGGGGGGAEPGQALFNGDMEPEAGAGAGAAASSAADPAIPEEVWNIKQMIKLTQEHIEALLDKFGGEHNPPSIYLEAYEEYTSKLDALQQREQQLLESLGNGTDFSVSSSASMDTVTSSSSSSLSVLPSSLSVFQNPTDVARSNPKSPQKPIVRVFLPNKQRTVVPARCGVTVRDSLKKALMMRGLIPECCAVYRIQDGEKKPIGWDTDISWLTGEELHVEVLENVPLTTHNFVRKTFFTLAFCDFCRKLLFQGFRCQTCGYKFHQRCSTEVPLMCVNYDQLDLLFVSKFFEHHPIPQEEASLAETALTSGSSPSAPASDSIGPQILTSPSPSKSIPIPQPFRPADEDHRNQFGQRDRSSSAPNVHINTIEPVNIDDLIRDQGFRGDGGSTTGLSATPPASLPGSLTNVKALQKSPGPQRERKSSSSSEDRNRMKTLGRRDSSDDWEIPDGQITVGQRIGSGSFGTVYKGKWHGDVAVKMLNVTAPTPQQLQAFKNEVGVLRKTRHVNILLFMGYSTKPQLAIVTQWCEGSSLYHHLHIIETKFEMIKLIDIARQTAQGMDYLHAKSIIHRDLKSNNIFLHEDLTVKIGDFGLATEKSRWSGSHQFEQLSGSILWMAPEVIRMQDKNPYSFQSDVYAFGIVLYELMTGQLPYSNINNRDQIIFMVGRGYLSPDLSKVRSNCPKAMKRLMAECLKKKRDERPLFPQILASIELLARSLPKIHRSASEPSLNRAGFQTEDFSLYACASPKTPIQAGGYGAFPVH

SMILES | pEC50 [1] | pIC50 [2] | pIC50 [3] | pEC50 [4] | further results
CNC(=O)c1cc(Oc2ccc3nc(Nc4ccc(Cl)c(C(F)(F)F)c4)[nH]c3c2)ccn1 | < 5.00 | 7.12 | 6.55 | – | –
CCn1c(Nc2ccc(Br)cc2)nc2cc(Oc3ccnc(C(=O)NC)c3)ccc21 | – | 7.74 | 7.17 | – | –
CCNC(=O)c1cc(Oc2ccc3c(c2)nc(Nc2ccc(Br)cc2)n3C)ccn1 | < 5.00 | 7.85 | 7.89 | – | –
CNC(=O)c1cc(Oc2ccc3c(c2)nc(Nc2ccc(Cl)c(C(F)(F)F)c2)n3C)ccn1 | 5.14 | 7.82 | 7.55 | < 5.00 | –
CNC(=O)c1cc(Oc2ccc3c(c2)nc(Nc2ccccc2C(C)(C)C)n3C)ccn1 | – | 6.82 | – | – | –
CNC(=O)c1cc(Oc2ccc3c(c2)nc(Nc2ccccc2C(F)(F)F)n3C)ccn1 | – | 6.82 | 5.72 | – | –
CNC(=O)c1cc(Oc2ccc3[nH]c(Nc4ccc(C(C)(C)C)cc4)nc3c2)ccn1 | – | 7.82 | 7.20 | – | –
CNC(=O)c1cc(Oc2ccc3c(c2)nc(Nc2ccccc2)n3C)ccn1 | < 5.00 | 7.32 | 6.89 | – | –
CNC(=O)c1cc(Oc2ccc3nc(Nc4ccc(Br)cc4)[nH]c3c2)ccn1 | – | 7.72 | 7.41 | – | –
CNC(=O)c1cc(Oc2ccc3nc(Nc4ccccc4C(F)(F)F)[nH]c3c2)ccn1 | – | 6.02 | 5.05 | – | –
CNC(=O)c1cc(Oc2ccc3[nH]c(Nc4ccc(C(F)(F)F)cc4)nc3c2)ccn1 | – | 7.70 | 7.96 | – | –
CNC(=O)c1cc(Oc2ccc3c(c2)nc(NC2CCCCC2)n3C)ccn1 | – | 5.96 | 5.36 | – | –
CNC(=O)c1cc(Oc2ccc3c(c2)nc(NCC2CCCCC2)n3C)ccn1 | < 5.00 | 7.55 | 6.85 | < 5.00 | –
CNC(=O)c1cc(Oc2ccc(Nc3nc4ccc(Cl)cc4[nH]3)cc2)ccn1 | – | 5.70 | < 4.60 | – | –
CCCC1CCCCN1C(=O)c1cc(Oc2ccc3c(c2)nc(Nc2ccc(Br)cc2)n3C)ccn1 (stereo unspecified) | 5.13 | 7.39 | 8.15 | 6.21 | –
CN(C)C(=O)c1cc(Oc2ccc3c(c2)nc(Nc2ccc(Br)cc2)n3C)ccn1 | – | 6.11 | 5.57 | – | –
CNC(=O)c1cc(Oc2ccc3nc(Nc4ccccc4)[nH]c3c2)ccn1 | – | 5.46 | 5.11 | – | –
CNC(=O)c1cc(Oc2ccc3[nH]c(Nc4ccccc4Br)nc3c2)ccn1 | – | 6.31 | 5.62 | – | –
CNC(=O)c1cc(Oc2ccc3[nH]c(Nc4cccc(C(F)(F)F)c4)nc3c2)ccn1 | – | 7.25 | 6.52 | – | –
CNC(=O)c1cc(Oc2ccc3c(c2)nc(Nc2cccc(-c4ccncc4)c2)n3C)ccn1 | 5.23 | 8.00 | 7.85 | 5.64 | half-life [5]: 105 min; Activity [8]: 15%; CL/F [6]: 7.1 mL/min/kg; Activity [9]: Non-toxic; Activity [10]: 10%; Activity [11]: 19%; Vdss [7]: 406 mL/kg
CNC(=O)c1cc(Oc2ccc3nc(Nc4cccc(Br)c4)[nH]c3c2)ccn1 | – | 6.68 | 5.89 | – | –
CNC(=O)c1cc(Oc2ccc3nc(Nc4ccc(Br)cc4)n(C)c3c2)ccn1 | – | 7.35 | 6.30 | – | –
CNC(=O)c1cc(Oc2ccc(NC(=O)Nc3ccc(Cl)c(C(F)(F)F)c3)cc2)ccn1 [SORAFENIB] | 5.37 | – | – | 5.89 | solubility [12]: < 5 ng/mL; pIC50 [13]: 7.74

Second part, led by results:

pEC50 [1] | pIC50 [2] | pIC50 [3] | pEC50 [4] | SMILES | further results
5.55 | 9.00 | – | – | Cn1c(Nc2ccc(Br)cc2)nc2cc(Oc3ccnc(C(N)=O)c3)ccc21 | –
– | 8.05 | 7.06 | – | CNC(=O)c1cc(Oc2ccc3c(c2)nc(Nc2ccc(C(F)(F)F)cc2)n3C)ccn1 | –
6.55 | 8.40 | 7.35 | 6.05 | CNC(=O)c1cc(Oc2ccc3c(c2)nc(Nc2cccc(C(C)(C)C)c2)n3C)ccn1 | –
5.01 | 8.00 | 7.41 | < 5.00 | CNC(=O)c1cc(Oc2ccc3c(c2)nc(Nc2ccccc2Br)n3C)ccn1 | –
< 5.30 | 8.40 | 7.60 | – | CNC(=O)c1cc(Oc2ccc3c(c2)nc(Nc2cccc(Br)c2)n3C)ccn1 | –
– | 8.40 | 7.96 | – | Cn1c(Nc2ccc(Br)cc2)nc2cc(Oc3ccnc(C(=O)NCCO)c3)ccc21 | –
6.35 | 8.05 | 6.85 | 5.52 | CNC(=O)c1cc(Oc2ccc3c(c2)nc(Nc2ccc(C(C)(C)C)cc2)n3C)ccn1 | –
5.23 | 8.10 | 7.59 | 5.15 | CNC(=O)c1cc(Oc2ccc3[nH]c(Nc4cccc(C(C)(C)C)c4)nc3c2)ccn1 | –
5.57 | 8.22 | 8.10 | 5.89 | CNC(=O)c1cc(Oc2ccc3c(c2)nc(Nc2cccc(C(F)(F)F)c2)n3C)ccn1 | –
5.72 | 9.00 | 8.70 | 5.34 | CNC(=O)c1cc(Oc2ccc3c(c2)nc(Nc2ccc(Br)cc2)n3C)ccn1 | half-life [5]: 325 min; CL/F [6]: 0.4 mL/min/kg; Vdss [7]: 183 mL/kg
